Assay results: paper PMC10811509 (Advanced Science, 2023)
No end group written: not given here.

Tests used:
[1] = system: Aβ in hippocampi of C57BL/6J mice; assay: Immunohistochemistry of hippocampus after stereotaxic peptide injection, Aβ (6E10, thioflavin‐S); format: in vivo, mouse; details: hippocampal injection of Aβ40 (100 µM) and APP‐C31 (200 µM), 1 µL; 10 days; n = 3
SH‐SY5Y cells [2] = assay: Cell viability after microinjection
Procedure: (§1) Cell survival measurements were described in detail in the experimental section. […] White arrows indicate apoptotic cells microinjected with peptide samples. […] Scale bar = 100 µm.
Experiments were performed at least in triplicate.

[3] = system: human neurons differentiated from H9 human embryonic stem cells; assay: Neurite outgrowth in human neurons; format: cell-based
Procedure: Human neurons were differentiated from neural progenitor cells (NPCs), which are derived from human embryonic stem cells (hESCs), WA09 (also known as H9). hESCs were maintained on inactivated mouse embryonic fibroblasts (MEFs) in hESC‐media comprising DMEM/F12 (GIBCO) with MEM non‐essential amino acids (MEM NEAA; GIBCO), sodium bicarbonate (14 mM; Sigma‐Aldrich), L‐glutamine (1 mM; Sigma‐Aldrich), β‐mercaptoethanol (100 µM; Merck Millipore, Billerica, MA, USA), knockout serum replacement (20% v/v; GIBCO), and bFGF (10 ng mL^−1; R&D systems, McKinley Place, MN, USA). MEFs were collected from E13.5 CrljOri:CD1 (ICR) mice (Orientbio, Seongnam, Republic of Korea) and inactivated with 10 µg mL^−1 of mitomycin C (AG Scientific, San Diego, CA, USA) in 2 h. hESC colonies were dissociated with Collagenase IV and plated onto Petri dishes in hESC‐media to form embryoid bodies (EBs). […] The treatment was continued for a week, followed by plating onto growth factor reduced matrigel (BD biosciences)‐coated dishes in DMEM/F12 + glutamax (GIBCO) with N2 and B27 supplements (N2/B27 media) and laminin (1 mg mL^−1; GIBCO). […]
Human NPCs were differentiated into neurons for 2 d and the media was replaced by fresh media. […] The neurite of a neuron measured from the soma to the tip was analyzed using Neuron J program of Fiji software.^[ [81] ^]

[4] = system: Iba1‐positive microglial cells in hippocampi of C57BL/6J mice; assay: Immunohistochemistry of hippocampus after stereotaxic peptide injection, microglia (Iba1); format: in vivo, mouse; details: hippocampal injection of Aβ40 (100 µM) and APP‐C31 (200 µM), 1 µL; 10 days; n = 5
Procedure: 15 neurons were analyzed per each condition. […] Scale bar = 100 µm. […] Scale bar = 200 µm. f) Quantification results of the 6E10‐positive area and Iba1‐positive cells, calculated based on the fluorescence signals.
All experiments were performed in accordance with approved animal protocols and guidelines established by Korea Research Institute of Bioscience and Biotechnology (KRIBB). C57BL/6J (11 weeks old; 30 g) were anesthetized by the intraperitoneal injection of tribromoethanol (320 mg kg^−1, i.p.) and positioned in a stereotaxic apparatus. […] All infusions were given using a Hamilton syringe equipped with a 26‐gauge beveled needle and attached to a Nanojet stereotaxic syringe pump (Chemyx, Inc., TX, USA). Infusions were delivered at a rate of 0.2 µL min^−1. […]
Mice were perfused with phosphate‐buffered saline (GIBCO) and 4% paraformaldehyde (PFA) solution, and then the brains were post‐fixed with 4% PFA overnight and dehydrated with 30% sucrose solution. […] Immunofluorescence staining was performed as previously described^[ [83] ^] using anti‐Aβ antibody (6E10; 1:1,000), anti‐APP antibody (Y188; 1:500), anti‐Iba1 antibody (1:1,000, Wako Life Sciences Inc., Japan), an appropriate fluorescence‐conjugated secondary antibody, and Hoechst 33 258 (1:10,000; Life Technologies, CA, USA) for counterstaining. […]

Aβ40 = target: T1, Aβ40 (Homo sapiens, UniProt P05067); assay: ITC, APP‐C31 binding to Aβ40; details: read-out: binding affinity (Kd)
T1 construct: purchased Peptide Institute, Inc. (Osaka, Japan) or Anaspec (Fremont, CA, USA)
Procedure: Titration experiments composed of 28 injections were conducted. The injection volume was 2 µL for the first injection to minimize effects of bubbles and 10 µL for the remaining injections. […] The initial delay was 1800 s and the reference power was 10 µcal s^−1. […] The binding isotherms after baseline correction were fitted to the one set of sites binding model incorporated in the MicroCal Origin 7.0 software.^[ [84] ^]
Figure S10. Interaction of Ab40 with APP-C31 monitored by ITC. The ITC thermogram (upper panel) and binding isotherm (lower panel) were obtained upon titration of APP-C31 into Ab40. The Kd value was calculated from three independent measurements. Conditions: [Ab40] = 30 µM; [APP-C31] = 600 µM; 20

SH‐SY5Y cells [5] = assay: Annexin V staining (apoptosis) after microinjection; details: 24 h; for Pearson's coefficient (r), annexin V / Texas Red‐labeled dextran: n = 3–5
Procedure: as §1
After 24 h incubation, the cells were washed with annexin‐binding buffer and stained with annexin V‐Alexa Fluor 488 for detecting apoptosis following the manufacturer's instruction (FITC Annexin V/Dead Cell Apoptosis Kit; V13241, Invitrogen). Fluorescent responses of annexin V and Texas Red‐labeled dextran were identified by a microscope with a GFP light cube [excitation at 470 (±22) nm and emission at 525 (±50) nm] and a Cy5 light cube [excitation at 628 (±40) nm and emission at 685 (±40) nm], respectively. At least five randomly selected fields per conditions were captured with a microscope. Pearson's correlation coefficient for the indication of co‐localization was calculated with the Coloc2 plugin in Fiji software.^[ [79] ^]

[6] = APP‐C31 (10 µM) or Aβ40 (10 µM) alone

T1 sequence (P05067 672-711): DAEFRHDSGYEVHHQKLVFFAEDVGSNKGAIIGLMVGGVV

AAVTPEERHLSKMQQNGYENPTYKFFEQMQN [APP‐C31]
6E10‐positive area vs Aβ40 alone [1]: significantly enhanced | cell viability (SH‐SY5Y cells [2]; 10 µM): 86% | cell viability (SH‐SY5Y cells [2]; Cu(II)–Aβ40 (10 µM) with APP‐C31 (10 µM), 24 h, n = 3–5): 78% | averaged neurite length ([3]; Aβ40 20 µM with stoichiometric or suprastoichiometric APP‐C31, 24 h): further decreased | neurite morphology ([3]; Aβ40 20 µM with various concentrations of APP‐C31, 72 h): fragmentation of neurites | number of Iba1‐positive microglial cells vs Aβ40 only [4]: 3.7 fold | Kd (Aβ40): 150 µM | green fluorescence of annexin V (SH‐SY5Y cells [5]; [6]): did not significantly show the green fluorescence of annexin V | Pearson's coefficient (r), annexin V / Texas Red‐labeled dextran (SH‐SY5Y cells [5]; [6]): ≈ 0.2 | green fluorescence of annexin V (SH‐SY5Y cells [5]; both APP‐C31 (10 µM) and Aβ40 (10 µM)): intense green fluorescence of annexin V | Pearson's coefficient (r), annexin V / Texas Red‐labeled dextran (SH‐SY5Y cells [5]; both APP‐C31 (10 µM) and Aβ40 (10 µM), **p < 0.01): ≈ 0.6
